The text below walks through data of ChEMBL document CHEMBL1201862, “PubChem BioAssay data set” (2004).

Among the test systems are Malme-3M; NCI-H460; SNB-19; EKVX; SF-295; OVCAR-5; MOLT-4; RXF 393; HCT-116; NCI-H226; PC-3; UACC-257; SN12C; ACHN; DU-145; HCC 2998; OVCAR-3; HL-60.
Holding throughout (test): NCI anticancer screen, dose series, 48 h

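Five concentrations, 48 hours, 96-well plates. Here, GI50 denotes the concentration required for 50% inhibition of growth.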 The source made the active and inactive calls. Rule as the data show it: active = GI50 up to about 1.1 µM and inactive = higher. A value given as a limit tells only on which side of the number the result lay.

As to `O=S(=O)(Cc1cnc(O)nc1O)Cc1cnc(O)nc1O`, the GI50 with Malme-3M, with NCI-H460, in the assay with SNB-19, with EKVX, in the assay on SF-295 and with OVCAR-5 was > 100 µM (inactive) each time. Moreover, the GI50 in the assay with MOLT-4, in the assay with RXF 393, in the assay on HCT-116, in the assay on NCI-H226, in the assay with PC-3 and in the assay with UACC-257 was > 100 µM (inactive) throughout. Moreover, the GI50 in the assay with SN12C, with ACHN and with DU-145 was > 100 µM (inactive) each time.
As for `C=C1C(=O)OC2C1CCC(C)C1(O)C=CC(=O)C21C` (configuration not stated), the GI50 was > 10 µM (inactive) with Malme-3M; > 10 µM (inactive) in the assay with NCI-H460; > 10 µM (inactive) in the assay with SNB-19; > 10 µM (inactive) in the assay on EKVX; > 10 µM (inactive) in the assay with SF-295; 3.1 µM (inactive) with MOLT-4. Also, the GI50 in the assay on RXF 393 was 9.31 µM (inactive); in the assay with HCT-116, 5.04 µM (inactive); in the assay with NCI-H226 it was > 10 µM (inactive); in the assay with PC-3, > 10 µM (inactive); in the assay with SN12C it was > 10 µM (inactive); in the assay on ACHN it was 5.66 µM (inactive). Also, the GI50 in the assay with HCC 2998 was > 10 µM (inactive); in the assay with OVCAR-3, 4.9 µM (inactive); in the assay on HL-60 it was 2.39 µM (inactive).
As to `CC1(CCOCc2ccccc2)NC(=O)NC1=O` (configuration not stated), the GI50 in the assay with Malme-3M, in the assay on NCI-H460, in the assay with SNB-19, in the assay with EKVX, in the assay with SF-295 and in the assay with OVCAR-5 was > 100 µM (inactive) throughout. Further, the GI50 with MOLT-4, with RXF 393, with HCT-116, in the assay with NCI-H226, in the assay with PC-3 and with UACC-257 was > 100 µM (inactive) in each case. The GI50 with SN12C, in the assay on ACHN, in the assay with HCC 2998, with OVCAR-3 and in the assay with DU-145 was > 100 µM (inactive) each time.
Turning to `COC(=O)[C@@H]1CCCN1CCN1CCC[C@H]1C(=O)OC`, the GI50 with Malme-3M, in the assay with NCI-H460, with SNB-19, in the assay on SF-295, with OVCAR-5 and with MOLT-4 was > 100 µM (inactive) throughout. In addition, the GI50 in the assay with RXF 393, with HCT-116, in the assay on PC-3, in the assay with SN12C, with ACHN and in the assay on OVCAR-3 was > 100 µM (inactive) each time. The GI50 in the assay on DU-145 was > 100 µM (inactive).
As to `C[C@@]12c3c4ccc(C=O)c3Oc3ccc(C=O)c(c31)Oc1c(C=O)ccc(c12)O4`, the GI50 with Malme-3M, in the assay with NCI-H460, with SNB-19, with EKVX, in the assay with SF-295 and with OVCAR-5 was > 100 µM (inactive) each time. Further, the GI50 with MOLT-4, in the assay with HCT-116, in the assay on NCI-H226, with PC-3, with UACC-257 and in the assay on SN12C was > 100 µM (inactive) in each case. In addition, the GI50 with ACHN, in the assay on HCC 2998 and with OVCAR-3 was > 100 µM (inactive) each time.
Consider `Cc1sc(N/N=C2\C(=O)Nc3ccccc32)nc1-c1ccccc1`, for which the GI50 is 10.2 µM (inactive) with NCI-H460; 16.6 µM (inactive) with SNB-19; 11.1 µM (inactive) with EKVX; 11 µM (inactive) in the assay with SF-295; 20.9 µM (inactive) in the assay on OVCAR-5; 12.6 µM (inactive) in the assay with MOLT-4. Besides, the GI50 in the assay with RXF 393 is 15.8 µM (inactive); with HCT-116 it was 12.4 µM (inactive); with NCI-H226, 33.3 µM (inactive); in the assay with UACC-257, 21.4 µM (inactive); in the assay on SN12C, 12.1 µM (inactive); in the assay with ACHN, 15.3 µM (inactive). Moreover, the GI50 was 22.2 µM (inactive) in the assay on HCC 2998, 12.6 µM (inactive) in the assay with OVCAR-3, 11.6 µM (inactive) in the assay on DU-145 and 4.23 µM (inactive) with HL-60.
Turning to `COc1ccc(C(OCC2OC(n3ccc(NC(=O)c4ccccc4)nc3=O)CC2OP2(=S)SCCS2)(c2ccccc2)c2ccc(OC)cc2)cc1` (configuration not stated), the GI50 in the assay with Malme-3M is 25.4 µM (inactive); in the assay with NCI-H460 it was 33.6 µM (inactive); in the assay with SNB-19 it was 29.6 µM (inactive); in the assay with EKVX, 34.5 µM (inactive); with SF-295, 30.7 µM (inactive); in the assay with OVCAR-5 it was 36.8 µM (inactive). In addition, the GI50 is 37.5 µM (inactive) with MOLT-4; 33.2 µM (inactive) in the assay with RXF 393; 32.9 µM (inactive) with HCT-116; 34.4 µM (inactive) with NCI-H226; 17.8 µM (inactive) in the assay on PC-3; 30.1 µM (inactive) with UACC-257. Besides, the GI50 in the assay with SN12C is 21.1 µM (inactive); with ACHN it was 18.6 µM (inactive); in the assay on OVCAR-3, 22.6 µM (inactive); in the assay with DU-145, 32.9 µM (inactive).
With `COc1cc(Cc2nccc3cc(OC)c(OC)cc23)c(/N=N/N(C)C)cc1OC`, the GI50 in the assay with Malme-3M is 22.3 µM (inactive); in the assay with NCI-H460, 7.23 µM (inactive); with SNB-19, 30.6 µM (inactive); with EKVX it was 14.6 µM (inactive); in the assay on SF-295, 19.9 µM (inactive); in the assay on OVCAR-5, 20.5 µM (inactive). Moreover, the GI50 in the assay on MOLT-4 was 5.27 µM (inactive); in the assay on RXF 393, 2.99 µM (inactive); in the assay on HCT-116 it was 5.08 µM (inactive); in the assay on NCI-H226, 20.4 µM (inactive); in the assay on PC-3 it was 10.7 µM (inactive); with UACC-257, 20.3 µM (inactive). Besides, the GI50 is 14.3 µM (inactive) in the assay on SN12C; 15.1 µM (inactive) in the assay with ACHN; 14.6 µM (inactive) in the assay with HCC 2998; 15.5 µM (inactive) in the assay on OVCAR-3; 17.5 µM (inactive) in the assay with DU-145.
Take `O=C1c2ccccc2-c2c1c(-c1ccc([N+](=O)[O-])cc1)nc1ccc3ccccc3c21`: the GI50 with Malme-3M, with NCI-H460, in the assay with SNB-19, in the assay on EKVX, with SF-295 and with OVCAR-5 was > 100 µM (inactive) in each case. The GI50 in the assay with MOLT-4, with HCT-116, with NCI-H226, in the assay with PC-3, in the assay with UACC-257 and in the assay with SN12C was > 100 µM (inactive) each time. Further, the GI50 in the assay with ACHN, with HCC 2998, in the assay with OVCAR-3 and in the assay on DU-145 was > 100 µM (inactive) throughout.
Consider `C[C@@]12C[C@@H](c3ccccc3O1)N1Cc3ccccc3CSC1=N2`, for which the GI50 in the assay on Malme-3M was 79.8 µM (inactive); with NCI-H460, 42.8 µM (inactive); in the assay on SNB-19, > 100 µM (inactive); in the assay on EKVX, > 100 µM (inactive); in the assay on SF-295, > 100 µM (inactive); with OVCAR-5, > 100 µM (inactive). Also, the GI50 was 56.6 µM (inactive) in the assay on MOLT-4; > 100 µM (inactive) in the assay with RXF 393; 49.7 µM (inactive) with HCT-116; > 100 µM (inactive) in the assay with NCI-H226; 83.6 µM (inactive) in the assay with PC-3; 66.5 µM (inactive) with UACC-257. The GI50 was > 100 µM (inactive) in the assay with SN12C; > 100 µM (inactive) in the assay on ACHN; 33.3 µM (inactive) with HCC 2998; 35.4 µM (inactive) in the assay with OVCAR-3; 69.3 µM (inactive) in the assay with DU-145.
Regarding `CCCCCCNC(=O)CCC(NC(=O)c1ccc(N(C)Cc2cnc3nc(N)nc(N)c3n2)cc1)C(=O)NCCCCCC` (configuration not stated), the GI50 was 47.2 µM (inactive) in the assay with NCI-H460; > 100 µM (inactive) in the assay with SNB-19; 37.4 µM (inactive) in the assay with EKVX; 16.7 µM (inactive) in the assay with SF-295; > 100 µM (inactive) in the assay with OVCAR-5; > 100 µM (inactive) with MOLT-4. For the same compound, the GI50 was 39.4 µM (inactive) with RXF 393; > 100 µM (inactive) with HCT-116; > 100 µM (inactive) in the assay on NCI-H226; > 100 µM (inactive) in the assay with PC-3; 37.1 µM (inactive) in the assay with UACC-257; > 100 µM (inactive) in the assay on SN12C. Besides, the GI50 in the assay on ACHN was > 100 µM (inactive); in the assay on HCC 2998, > 100 µM (inactive); in the assay with OVCAR-3 it was > 100 µM (inactive); with DU-145 it was 89.3 µM (inactive).
As for `CC(C)C[C@H](NC(=O)[C@@H](N)Cc1cccc2ccccc12)B(O)O`, the GI50 in the assay on Malme-3M was 0.0224 µM (active); in the assay with NCI-H460, 0.0695 µM (active); with SNB-19, 2.47 µM (inactive); in the assay on SF-295 it was < 0.0241 µM (active); with OVCAR-5 it was 0.0272 µM (active); in the assay on MOLT-4 it was < 0.0177 µM (active). In addition, the GI50 in the assay on RXF 393 was < 0.017 µM (active); in the assay on HCT-116 it was < 0.0165 µM (active); with NCI-H226, < 0.0132 µM (active); in the assay on PC-3, 0.0667 µM (active); in the assay with UACC-257, 0.0311 µM (active); in the assay on SN12C, 0.0426 µM (active). For the same compound, the GI50 is 0.189 µM (active) with ACHN, 0.173 µM (active) in the assay on HCC 2998, < 0.0149 µM (active) with OVCAR-3 and 0.44 µM (active) with DU-145.
For the compound `Cc1cc(O)no1` [HYMEXAZOL], the GI50 with NCI-H460, with SNB-19, in the assay on EKVX, in the assay on SF-295, in the assay on OVCAR-5 and in the assay with RXF 393 was > 100 µM (inactive) in each case. Besides, the GI50 in the assay on HCT-116 was > 100 µM (inactive); with NCI-H226, > 100 µM (inactive); in the assay with PC-3 it was > 100 µM (inactive); with UACC-257, > 100 µM (inactive); in the assay on ACHN, 18.9 µM (inactive); with HCC 2998, > 100 µM (inactive). Further, in the assay with OVCAR-3, the GI50 was > 100 µM (inactive).
